Legend:
PBR = molecular target: T1, PBR (Homo sapiens, UniProt P30536); assay: Mitochondrial-specific rhodamine 1,2,3 fluorescence in HeLa cells expressing the PBR; type: cell-based
T1 construct: endogenous in cells; host or cells: HeLa cells
Source text: The PBR is situated between the inner and outer mitochondrial membrane. It forms part of the transition pore complex, which participates in regulating mitochondrial flux by opening the mitochondrial pore. There exist molecules which display high affinity for PBR, particularly Ro5-4864 and PK11195.
By monitoring mitochondrial-specific fluorescence of rhodamine 1,2,3, the effects of PBR-specific ligands and those of etazolate could be followed.

[1] = Escalating single oral dose study in healthy male volunteers: tolerability; type: in vivo, humans; settings: oral capsules, single doses 0.5-20 mg
Experimental: (§1) In this study, increasing doses of etazolate (0.5, 1, 2, 5, 10 and 20 mg) were administered orally in the form of 0.5 and 5 mg capsules to different and sequential groups of eight young healthy male volunteers. This was a single-center, double-blind study in which two of the eight subjects received a placebo.
(§2) The following parameters were evaluated: clinical tolerability (adverse effects, clinical signs, changes in blood pressure or heart rate), electrocardiographic tolerability (recording of the ECG) and biological tolerability (hematology and blood biochemistry, urinalysis) for 24 hours after dosing. The product was assayed in plasma at different times before and after administration in each subject (0.25-0.50-1.00-1.50-2.00-3.00-4.00-5.00-6.00-8.00-10.00-12.00 and 24.00 hours). The product was also assayed in urine collected before and after administration (4, 4-8,8-12 and 12-24 hours).

[2] = tested on: ventral spinal cord cells; assay: Excitotoxicity protection in primary ventral spinal cord cells (MTT test); type: cell-based, rat; settings: 100 μM NMDA + 10 μM D-serine, 3-hour incubation
Experimental: (§3) In this example, cerebellar granular neurons, cortical neurons and ventral spinal cord cells from rats were cultured according to methods known to those skilled in the art.
Cells were isolated from 14-day-old Wistar rat embryos. On arrival, gestating rats were sacrificed by carbon dioxide intoxication.
The chain of embryos was removed and placed in a dish containing PBS.
The spinal cord of each embryo was dissected and the ventral cord was separated from the dorsal cords. The ventral cords were then trypsinized at 37° C. for 20 minutes. Trypsinization was stopped by addition of Leibovitz 15 medium, 20% horse serum, supplement N2 (1×), 20% glucose (3.2 mg/ml), 7.5% bicarbonate (1.8 mg/ml) and 2 mM L-glutamine. The cells were dissociated by trituration. Clumps of tissue were removed and the dissociated cells were then quantified by trypan blue staining. The cells were seeded at 250,000 cells per cm^2 in neurobasal medium containing 2% horse serum, supplement B27 (1×), and 2 mM glutamine. […] After a 3-hour incubation with NMDA/D-serine as toxic agent and a 1-hour incubation with kainate, toxicity was measured by the MTT test. The results were normalized to the untreated mean and analyzed statistically with a Wilcoxon test with p<0.05.
(§4) Toxicity was measured with the MTT test. […] Absorbance at 550 nm was measured and the percentage viability was calculated.

[3] = tested on: cerebellar granular cells; assay: Excitotoxicity protection in primary cerebellar granular cells (MTT test); type: cell-based, rat; settings: etazolate three hours before toxic agents, 6-hour incubation
Experimental: In this example, cerebellar granular neurons, cortical neurons and ventral spinal cord cells from rats were cultured according to methods known to those skilled in the art. Seven-day-old Wistar rats were decapitated and brains were dissected. The meninges were removed and the tissue was then cut into small pieces and trypsinized for 15 minutes at 37° C. Cells were dissociated by trituration, then placed in culture at a density of 300,000 cells per cm^2 in Eagle basic medium supplemented with 10% fetal calf serum and 2 mM glutamine. The next day, 10 μM ARA-C, an antimitotic agent, was added to prevent proliferation of glial cells. The cells were treated on day 9 of culture with the inhibitor compound etazolate, three hours before adding the toxic agents 50 μM kainate or 100 μM N-methyl-D-aspartate in the presence of 10 μM D-serine. Immediately before adding the toxic agents, 8-bromo-cAMP was added. All treatments were done at least in duplicate and in at least two different cultures. After a 6-hour incubation, toxicity was measured by the MTT test. The results were normalized to the untreated mean and analyzed statistically with a Wilcoxon test. The level of significance was p≦0.05. Toxicity was measured with the MTT test. […] Absorbance at 550 nm was measured and the percentage viability was calculated.

[4] = Escalating single oral dose study in healthy male volunteers: plasma assays; type: in vivo; settings: humans, at high doses
Experimental: as §1, §2

cortical neurons = assay: Excitotoxicity protection in primary cortical neurons (MTT test); type: cell-based, rat; settings: etazolate 1 hour before toxic agents, 6-hour incubation
Experimental: as §3
Wistar rat embryos aged 16 days were removed and the cortex dissected. After trypsination at 37° C. for 25 minutes, the cells were dissociated by trituration, then seeded in minimum essential medium supplemented with 10% horse serum, 10% fetal calf serum and 2 mM glutamine, at a density of 300,000 cells per cm^2. After 4 days of culture, half the medium was replaced with minimum essential medium supplemented with 5% horse serum and 2 mM glutamine. The same day, the antimitotic 5-fluoro-2-deoxyuridine (10 μM) was added. After 7 and 11 days of culture, half the medium was replaced with conditioned medium composed of MEM supplemented with 5% horse serum and 2 mM glutamine; prior to use this medium was passed overnight on a layer of cortical astrocytes. On day 14, the cells were treated with the inhibitor compound etazolate, 1 hour before adding the toxic agents 50 μM kainate or 20 μM N-methyl-D-aspartate in the presence of 10 μM D-serine. […] After a 6-hour incubation, toxicity was measured by the MTT test. The results were normalized to the untreated mean and analyzed statistically with a Wilcoxon test. […]
as §4

[5] = tested on: retinal explants from rd1 mice; assay: Retinal explant cultures from rd1 mice, histopathology of photoreceptors; type: cell-based; settings: 2 μM etazolate, versus untreated explants
Experimental: This example describes the effects of a PDE4 inhibitor on retina of rd1 mice, which are characterized by a loss of visual cells starting two weeks after birth. For each etazolate concentration (0.02 μM, 0.2 μM, 2 μM and 20 μM), six retinal explants from rd1 mice were cultured for 21 days. The culture was started on postnatal day 7 in medium free of bovine fetal serum but containing etazolate at the indicated concentration. Six retinal explants from the same animals were used as controls for the treated explants. In this case, the explants were grown in culture medium alone or in culture medium containing the vehicle used for etazolate. For both conditions (control and treatment), the culture medium was changed every two days. After 21 days of culture, the explants were fixed, sectioned and labelled for histopathologic studies. Explants from untreated rd1 mice (postnatal day 28) lost most of their photoreceptors in culture, and the presence of an increase in photoreceptors was then detected by counting the remaining photoreceptors.

T1 sequence (P30536 whole entry): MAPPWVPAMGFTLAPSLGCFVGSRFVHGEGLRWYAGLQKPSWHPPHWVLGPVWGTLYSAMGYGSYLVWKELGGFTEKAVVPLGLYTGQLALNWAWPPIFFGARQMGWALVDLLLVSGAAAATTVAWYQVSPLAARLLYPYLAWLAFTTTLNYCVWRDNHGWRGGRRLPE

Row | Structure (SMILES) | mitochondrial-specific fluorescence of rhodamine 1,2,3 (PBR) | side effects [1] | tolerability (clinical, electrocardiographic, biological) ([1]; 24 hours after dosing) | protective effect on NMDA/serine-induced toxicity [2] [%] | protective effect on kainate-induced toxicity ([3]; 50 μM kainate) [%] | protective effect on NMDA/serine-induced toxicity ([3]; 100 μM N-methyl-D-aspartate + 10 μM D-serine) [%] | absorption (plasma assays) [4] | protective effect on NMDA/serine-induced toxicity (cortical neurons; 20 μM N-methyl-D-aspartate + 10 μM D-serine) [%] | protective effect on kainate-induced toxicity (cortical neurons; 50 μM kainate) [%] | preservation of photoreceptors (photoreceptor layer) ([5]; rd1 retinal explants cultured 21 days from postnatal day 7) | number of picnotic cells ([5]; rd1 retinal explants cultured 21 days)
1 | CCC(C)N(C)C(=O)c1cc2ccccc2c(-c2ccccc2Cl)n1 (stereo not shown) [PK11195] | loss of fluorescence |  |  |  |  |  |  |  |  |  | 
2 | CN1C(=O)CN=C(c2ccc(Cl)cc2)c2cc(Cl)ccc21 [Ro5-4864] | loss of fluorescence |  |  |  |  |  |  |  |  |  | 
3 | CCOC(=O)c1cnc2c(cnn2CC)c1NN=C(C)C [etazolate] | induced the same loss of fluorescence as the PBR-specific ligands | did not cause any side effects | well tolerated | 36 | 57 | 60 | good | 33 | 25 | much better preserved | marked reduction
